Laboratory results reported in patent US20260098061A1, “EPHA2-BINDING PENDING PEPTIDE AND COMPOSITION COMPRISING SAME” (PeptiDream Inc., priority 2022, published 2026).
Numbered stars: 1 amine (or outer) side, 2 acyl side, 3 side chain; on linkers, the order of the positions; unused ones are H or OH. Bridge positions count the residues as written; N and C are the ends. Square brackets hold non-standard residues; d marks the D form. Side chains are listed from the residue outwards. Peptide text beside a SMILES is read from it. * marks the point of attachment. NH(1-deoxy-D-glucityl) = OC[C@@H](O)[C@@H](O)[C@H](O)[C@@H](O)CN*; Trp(1-Me,7-Cl) = Cn1cc(C[C@H](N)C(=O)O)c2cccc(Cl)c21; Ala(2-NH2-4-pyridyl) = Nc1cc(C[C@H](N)C(=O)O)ccn1; dPhe(3-CONH2) = NC(=O)c1cccc(C[C@@H](N)C(=O)O)c1; Piperazinyl(4-CH2COOH) = O=C(O)CN1CCN(*)CC1; Trp(1-Me) = Cn1cc(C[C@H](N)C(=O)O)c2ccccc21; NMe3Pal = CN[C@@H](Cc1cccnc1)C(=O)O; NMeF = CN[C@@H](Cc1ccccc1)C(=O)O; hCit = NC(=O)NCCCC[C@H](N)C(=O)O; 4Pal = N[C@@H](Cc1ccncc1)C(=O)O; Gly(cBu) = N[C@H](C(=O)O)C1CCC1; NMeE = CN[C@@H](CCC(=O)O)C(=O)O; Aad = N[C@@H](CCCC(=O)O)C(=O)O; CO = O=C([*:1])[*:2]

These compounds were tested against T1, Recombinant Human EphA2 Fc Protein (Homo sapiens, UniProt P29317) (assay: SPR interaction analysis (Biacore T200), kinetics of peptides against EphA2). Details: Recombinant Human EphA2 Fc Protein captured by Human Antibody Capture kit; single-cycle kinetics; 25° C.; HBS-P+ buffer with 1% DMSO.
T1 construct: purchased Elabscience
Format: binding
Procedure, shortened: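 On a Biacore T200 at 25° C, Fc-tagged human EphA2 was captured via anti-human antibody; peptides ran as five serial dilutions in HBS-P+ pH 7.4 with 1% DMSO by single-cycle kinetics. Baseline-subtracted data fitted for ka and kd, from which KD was derived.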

| Compound | Kd |
| --- | --- |
| C[C@@H](O)[C@@H]1NC(=O)[C@H](Cc2cn(C)c3ccccc23)NC(=O)[C@H](CCC(=O)NC[C@H](O)[C@@H](O)[C@H](O)[C@H](O)CO)NC(=O)[C@H](Cc2cn(C)c3c(Cl)cccc23)NC(=O)[C@H](Cc2ccccc2)N(C)C(=O)[C@H](CCCC(N)=O)NC(=O)[C@H](C2CCC2)NC(=O)[C@H](CC(N)=O)NC(=O)[C@H](Cc2ccccc2)N(C)C(=O)[C@@H](Cc2cccc(C(N)=O)c2)NC(=O)CSC[C@@H](C(N)=O)NC(=O)[C@H](CCCC(N)=O)NC1=O [PDC_EphA2-00019431, df3CON-MeF-N-Cbg-Hgn-MeF-W1Me7Cl-Qglucamine-W1Me-T-Hgn-C-NH2] ({CH2CO}-[dPhe(3-CONH2)][NMeF]N[Gly(cBu)][Aad](NH2)[NMeF][Trp(1-Me,7-Cl)]E(NH(1-deoxy-D-glucityl))[Trp(1-Me)]T[Aad](NH2)C-NH2; thioether N-12) | < 1 nM |
| C[C@@H](O)[C@@H]1NC(=O)[C@H](Cc2cn(C)c3ccccc23)NC(=O)[C@H](CCCCNC(=O)N2CCN(CC(=O)O)CC2)NC(=O)[C@H](Cc2cn(C)c3c(Cl)cccc23)NC(=O)[C@H](Cc2ccccc2)N(C)C(=O)[C@H](CCCC(N)=O)NC(=O)[C@H](C2CCC2)NC(=O)[C@H](CC(N)=O)NC(=O)[C@H](Cc2ccccc2)N(C)C(=O)[C@@H](Cc2cccc(C(N)=O)c2)NC(=O)CSC[C@@H](C(N)=O)NC(=O)[C@H](CCCC(N)=O)NC1=O [PDC_EphA2-00019432, df3CON-MeF-N-Cbg-Hgn-MeF-W1Me7Cl-KCOpipzaa-W1Me-T-Hgn-C-NH2] ({CH2CO}-[dPhe(3-CONH2)][NMeF]N[Gly(cBu)][Aad](NH2)[NMeF][Trp(1-Me,7-Cl)]K([CO-Piperazinyl(4-CH2COOH)])[Trp(1-Me)]T[Aad](NH2)C-NH2; thioether N-12) | < 1 nM |
| C[C@@H](O)[C@@H]1NC(=O)[C@H](Cc2cn(C)c3ccccc23)NC(=O)[C@H](CCC(=O)NC[C@H](O)[C@@H](O)[C@H](O)[C@H](O)CO)NC(=O)[C@H](Cc2cn(C)c3c(Cl)cccc23)NC(=O)[C@H](Cc2ccccc2)N(C)C(=O)[C@H](CCCC(N)=O)NC(=O)[C@H](C2CCC2)NC(=O)[C@H](CC(N)=O)NC(=O)[C@H](Cc2cccnc2)N(C)C(=O)[C@@H](Cc2cccc(C(N)=O)c2)NC(=O)CSC[C@@H](C(N)=O)NC(=O)[C@H](CCCC(N)=O)NC1=O [PDC_EphA2-00019433, df3CON-Me3Py-N-Cbg-Hgn-MeF-W1Me7Cl-Qglucamine-W1Me-T-Hgn-C-NH2] ({CH2CO}-[dPhe(3-CONH2)][NMe3Pal]N[Gly(cBu)][Aad](NH2)[NMeF][Trp(1-Me,7-Cl)]E(NH(1-deoxy-D-glucityl))[Trp(1-Me)]T[Aad](NH2)C-NH2; thioether N-12) | < 1 nM |
| C[C@@H](O)[C@@H]1NC(=O)[C@H](Cc2cn(C)c3ccccc23)NC(=O)[C@H](CCCCNC(=O)N2CCN(CC(=O)O)CC2)NC(=O)[C@H](Cc2cn(C)c3c(Cl)cccc23)NC(=O)[C@H](Cc2ccccc2)N(C)C(=O)[C@H](CCCC(N)=O)NC(=O)[C@H](C2CCC2)NC(=O)[C@H](CC(N)=O)NC(=O)[C@H](Cc2cccnc2)N(C)C(=O)[C@@H](Cc2cccc(C(N)=O)c2)NC(=O)CSC[C@@H](C(N)=O)NC(=O)[C@H](CCCC(N)=O)NC1=O [PDC_EphA2-00019434, df3CON-Me3Py-N-Cbg-Hgn-MeF-W1Me7Cl-KCOpipzaa-W1Me-T-Hgn-C-NH2] ({CH2CO}-[dPhe(3-CONH2)][NMe3Pal]N[Gly(cBu)][Aad](NH2)[NMeF][Trp(1-Me,7-Cl)]K([CO-Piperazinyl(4-CH2COOH)])[Trp(1-Me)]T[Aad](NH2)C-NH2; thioether N-12) | < 1 nM |
| C[C@@H](O)[C@@H]1NC(=O)[C@H](Cc2cn(C)c3ccccc23)NC(=O)[C@H](CCC(=O)NC[C@H](O)[C@@H](O)[C@H](O)[C@H](O)CO)NC(=O)[C@H](Cc2cn(C)c3c(Cl)cccc23)NC(=O)[C@H](Cc2cccnc2)N(C)C(=O)[C@H](CCCC(N)=O)NC(=O)[C@H](C2CCC2)NC(=O)[C@H](CC(N)=O)NC(=O)[C@H](Cc2ccccc2)N(C)C(=O)[C@@H](Cc2cccc(C(N)=O)c2)NC(=O)CSC[C@@H](C(N)=O)NC(=O)[C@H](CCCC(N)=O)NC1=O [PDC_EphA2-00019435, df3CON-MeF-N-Cbg-Hgn-Me3Py-W1Me7Cl-Qglucamine-W1Me-T-Hgn-C-NH2] ({CH2CO}-[dPhe(3-CONH2)][NMeF]N[Gly(cBu)][Aad](NH2)[NMe3Pal][Trp(1-Me,7-Cl)]E(NH(1-deoxy-D-glucityl))[Trp(1-Me)]T[Aad](NH2)C-NH2; thioether N-12) | < 1 nM |
| C[C@@H](O)[C@@H]1NC(=O)[C@H](Cc2cn(C)c3ccccc23)NC(=O)[C@H](CCCCNC(=O)N2CCN(CC(=O)O)CC2)NC(=O)[C@H](Cc2cn(C)c3c(Cl)cccc23)NC(=O)[C@H](Cc2cccnc2)N(C)C(=O)[C@H](CCCC(N)=O)NC(=O)[C@H](C2CCC2)NC(=O)[C@H](CC(N)=O)NC(=O)[C@H](Cc2ccccc2)N(C)C(=O)[C@@H](Cc2cccc(C(N)=O)c2)NC(=O)CSC[C@@H](C(N)=O)NC(=O)[C@H](CCCC(N)=O)NC1=O [PDC_EphA2-00019436, df3CON-MeF-N-Cbg-Hgn-Me3Py-W1Me7Cl-KCOpipzaa-W1Me-T-Hgn-C-NH2] ({CH2CO}-[dPhe(3-CONH2)][NMeF]N[Gly(cBu)][Aad](NH2)[NMe3Pal][Trp(1-Me,7-Cl)]K([CO-Piperazinyl(4-CH2COOH)])[Trp(1-Me)]T[Aad](NH2)C-NH2; thioether N-12) | < 1 nM |
| C[C@@H](O)[C@@H]1NC(=O)[C@H](Cc2cn(C)c3ccccc23)NC(=O)[C@H](CCC(=O)NC[C@H](O)[C@@H](O)[C@H](O)[C@H](O)CO)NC(=O)[C@H](Cc2cn(C)c3c(Cl)cccc23)NC(=O)[C@H](CCC(=O)O)N(C)C(=O)[C@H](CCCC(N)=O)NC(=O)[C@H](C2CCC2)NC(=O)[C@H](CC(N)=O)NC(=O)[C@H](Cc2cccnc2)N(C)C(=O)[C@@H](Cc2cccc(C(N)=O)c2)NC(=O)CSC[C@@H](C(N)=O)NC(=O)[C@H](CCCC(N)=O)NC1=O [PDC_EphA2-00019439, df3CON-Me3Py-N-Cbg-Hgn-MeE-W1Me7Cl-Qglucamine-W1Me-T-Hgn-C-NH2] ({CH2CO}-[dPhe(3-CONH2)][NMe3Pal]N[Gly(cBu)][Aad](NH2)[NMeE][Trp(1-Me,7-Cl)]E(NH(1-deoxy-D-glucityl))[Trp(1-Me)]T[Aad](NH2)C-NH2; thioether N-12) | < 1 nM |
| C[C@@H](O)[C@@H]1NC(=O)[C@H](Cc2cn(C)c3ccccc23)NC(=O)[C@H](CCCCNC(=O)N2CCN(CC(=O)O)CC2)NC(=O)[C@H](Cc2cn(C)c3c(Cl)cccc23)NC(=O)[C@H](CCC(=O)O)N(C)C(=O)[C@H](CCCC(N)=O)NC(=O)[C@H](C2CCC2)NC(=O)[C@H](CC(N)=O)NC(=O)[C@H](Cc2cccnc2)N(C)C(=O)[C@@H](Cc2cccc(C(N)=O)c2)NC(=O)CSC[C@@H](C(N)=O)NC(=O)[C@H](CCCC(N)=O)NC1=O [PDC_EphA2-00019440, df3CON-Me3Py-N-Cbg-Hgn-MeE-W1Me7Cl-KCOpipzaa-W1Me-T-Hgn-C-NH2] ({CH2CO}-[dPhe(3-CONH2)][NMe3Pal]N[Gly(cBu)][Aad](NH2)[NMeE][Trp(1-Me,7-Cl)]K([CO-Piperazinyl(4-CH2COOH)])[Trp(1-Me)]T[Aad](NH2)C-NH2; thioether N-12) | < 1 nM |
| C[C@@H](O)[C@@H]1NC(=O)[C@H](Cc2cn(C)c3ccccc23)NC(=O)[C@H](CCCCNC(=O)N2CCN(CC(=O)O)CC2)NC(=O)[C@H](Cc2cn(C)c3c(Cl)cccc23)NC(=O)[C@H](Cc2ccccc2)N(C)C(=O)[C@H](CCCCNC(=O)N2CCN(CC(=O)O)CC2)NC(=O)[C@H](C2CCC2)NC(=O)[C@H](CC(N)=O)NC(=O)[C@H](Cc2cccnc2)N(C)C(=O)[C@@H](Cc2cccc(C(N)=O)c2)NC(=O)CSC[C@@H](C(N)=O)NC(=O)[C@H](CCCC(N)=O)NC1=O [PDC_EphA2-00019441, df3CON-Me3Py-A-Cbg-KCOpipzaa-MeF-W1Me7Cl-KCOpipzaa-W1Me-T-Hgn-C-NH2] ({CH2CO}-[dPhe(3-CONH2)][NMe3Pal]N[Gly(cBu)]K([CO-Piperazinyl(4-CH2COOH)])[NMeF][Trp(1-Me,7-Cl)]K([CO-Piperazinyl(4-CH2COOH)])[Trp(1-Me)]T[Aad](NH2)C-NH2; thioether N-12) | < 1 nM |
| C[C@@H](O)[C@@H]1NC(=O)[C@H](Cc2cn(C)c3ccccc23)NC(=O)[C@H](CCC(=O)NC[C@H](O)[C@@H](O)[C@H](O)[C@H](O)CO)NC(=O)[C@H](Cc2cn(C)c3c(Cl)cccc23)NC(=O)[C@H](Cc2ccccc2)N(C)C(=O)[C@H](CCCCNC(=O)N2CCN(CC(=O)O)CC2)NC(=O)[C@H](C2CCC2)NC(=O)[C@H](CC(N)=O)NC(=O)[C@H](Cc2cccnc2)N(C)C(=O)[C@@H](Cc2cccc(C(N)=O)c2)NC(=O)CSC[C@@H](C(N)=O)NC(=O)[C@H](CCCC(N)=O)NC1=O [PDC_EphA2-00019442, df3CON-Me3Py-N-Cbg-KCOpipzaa-MeF-W1Me7Cl-Qglucamine-W1Me-T-Hgn-C-NH2] ({CH2CO}-[dPhe(3-CONH2)][NMe3Pal]N[Gly(cBu)]K([CO-Piperazinyl(4-CH2COOH)])[NMeF][Trp(1-Me,7-Cl)]E(NH(1-deoxy-D-glucityl))[Trp(1-Me)]T[Aad](NH2)C-NH2; thioether N-12) | < 1 nM |
| CC(C)C[C@@H]1NC(=O)[C@H](Cc2ccncc2)NC(=O)[C@H](Cc2ccccc2)NC(=O)CSC[C@@H](C(=O)NCC(N)=O)NC(=O)[C@H](Cc2cn(C)c3ccccc23)NC(=O)[C@H](Cc2ccccc2)N(C)C(=O)[C@H](Cc2cn(C)c3ccccc23)NC(=O)CNC1=O [PDC_EphA2-00020295-L092, F-4Py-L-G-W1Me-MeF-W1Me-C-G-NH2] ({CH2CO}-F[4Pal]LG[Trp(1-Me)][NMeF][Trp(1-Me)]CG-NH2; thioether N-8) | 100 to 400 nM |
| CC(C)C[C@@H]1NC(=O)[C@H](Cc2ccnc(N)c2)NC(=O)[C@H](Cc2ccccc2)NC(=O)CSC[C@@H](C(N)=O)NC(=O)[C@H](Cc2cn(C)c3ccccc23)NC(=O)[C@H](Cc2ccccc2)N(C)C(=O)[C@H](Cc2cn(C)c3ccccc23)NC(=O)[C@H](CCCCNC(N)=O)NC1=O [PDC_EphA2-00020708, F-4Py2NH2-L-Hcit-W1Me-MeF-W1Me-C-NH2] ({CH2CO}-F[Ala(2-NH2-4-pyridyl)]L[hCit][Trp(1-Me)][NMeF][Trp(1-Me)]C-NH2; thioether N-8) | 100 to 400 nM |
